Source: patent US20020028938A1, “Prostaglandin endoperoxide H synthase biosynthesis inhibitors” (priority 1997, published 2002)

Key:
[1] = molecular target: T1, recombinant human Cox-1 (r-hu Cox1) (Homo sapiens, UniProt P23219); test: Recombinant human PGHS-1 enzyme assay (RHUCX1); format: biochemical
T1 construct: made in house; host or cells: baculovirus/Sf9 insect cells (microsomes)
Outline: (§1)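 PGE2 formed with and without drug quantified by EIA against matrix-matched standards; percent inhibition relative to control mean, IC50 by linear regression.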

[2] = molecular target: T2, recombinant human Cox-2 (r-hu Cox-2) (Homo sapiens, UniProt P35354); test: Recombinant human PGHS-2 enzyme assay (RHUCX2); format: biochemical; details: for IC50: read-out: RHUCX2 IC50 (parenthetical value)
T2 construct: made in house; host or cells: baculovirus/Sf9 insect cells (microsomes)
T2 sequence (P35354 18-604): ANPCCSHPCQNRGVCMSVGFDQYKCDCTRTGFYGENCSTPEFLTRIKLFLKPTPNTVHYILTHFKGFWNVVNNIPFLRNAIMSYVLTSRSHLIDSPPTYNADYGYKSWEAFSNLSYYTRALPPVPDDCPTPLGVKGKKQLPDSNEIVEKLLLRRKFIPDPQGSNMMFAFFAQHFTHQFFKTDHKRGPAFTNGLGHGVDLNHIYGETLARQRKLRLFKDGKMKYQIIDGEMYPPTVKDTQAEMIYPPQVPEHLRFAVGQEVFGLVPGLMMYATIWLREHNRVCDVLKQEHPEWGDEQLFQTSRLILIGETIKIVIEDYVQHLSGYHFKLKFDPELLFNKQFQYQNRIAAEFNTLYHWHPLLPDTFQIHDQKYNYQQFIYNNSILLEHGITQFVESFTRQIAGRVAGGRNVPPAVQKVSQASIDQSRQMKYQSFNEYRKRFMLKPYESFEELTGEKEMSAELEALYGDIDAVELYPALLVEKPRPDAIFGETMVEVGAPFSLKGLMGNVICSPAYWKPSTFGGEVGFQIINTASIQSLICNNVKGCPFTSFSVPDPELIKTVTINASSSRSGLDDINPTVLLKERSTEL
Outline: as §1

[3] = molecular target: T3, Human Whole Platelet Cyclooxygenase-1 (Homo sapiens, UniProt P23219); test: Human Whole Platelet Cyclooxygenase-1 assay (HWPX); format: cell-based; details: for IC50: read-out: HWPX IC50 (parenthetical value)
T3 construct: from tissue; host or cells: human blood: isolated platelets (A4) or heparinised whole blood (A9)
Outline: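 Washed platelets from healthy-donor ACD blood were pre-incubated with compound for 10 min, then stimulated with calcium ionophore A23187 (8.8 μM final) for 10 min. Reaction stopped with cold 6 mM EDTA; thromboxane in supernatants quantified with a commercial kit.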

[4] = molecular target: T4, human amnionic whole cell cyclooxygenase-2 (WISH cells) (Homo sapiens, UniProt P35354); test: IL-1β induced PGE2 production in WISH cells; format: cell-based; details: read-out: Wish IC50 (parenthetical value)
T4 construct: endogenous in cells; host or cells: human amnionic WISH cells, induced with IL-1beta
T4 sequence (P35354 18-604): T2 sequence (P35354 18-604)
Outline: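 Confluent (80%) WISH cells were stimulated with 5 ng/ml IL-1β in serum-free Neuman-Tytell medium, with or without test compound in DMSO (0.01% v/v). PGE2 in the culture medium was measured by EIA against standards prepared in the same medium, read by optical density.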

[5] = test system: carrageenan induced paw edema; test: Carrageenan induced paw edema (CPE) in rats; format: in vivo; details: rat; for inhibition in vivo at 10 mg/kg: read-out: CPE % Inhib. @ 10 mpk
Method: For oral administration, test compounds were suspended on the day of use in 100% polyethyleneglycol (PEG 400) with a motorized homogenizer equipped with a Teflon-coated pestle (TRI-R Instrument, Jamaica, N.Y.).
(§2) To compare the mean responses of the treatment groups, analysis of variance was applied. Percent inhibition values were determined by comparing the individual treatment mean values to the mean of the control group. Linear regression was used to estimate IC50's/ED50's in appropriate assays.
Hingpaw edema was […] in male rats as described by Winter et al., Proc. Soc. Exp. Biol. Med., 1962, 111, 544. Briefly, male Sprague-Dawley rats weighing between 170 and 190 g were administered test compounds orally 1 hour prior to the subplantar injection of 0.1 ml of 1% sodium carrageenan (lambda carrageenan, Sigma Chemical Co., St Louis, Mo.) into the right hindpaw. Right paw volumes (ml) were measured immediately following injection of carrageenan for baseline volume measurements using a Buxco plethysmograph (Buxco Electronics, Inc., Troy, N.Y.). Three hours after the injection of carrageenan, right paws were remeasured and paw edema calculated for each rat by subtracting the zero time reading from the 3 hour reading. Data are reported as mean percent inhibition +/−SEM. Statistical significance of results was analyzed by Dunnetts multiple comparison test where p<0.05 was considered statistically significant.

[6] = test system: air pouch prostaglandin biosynthesis (Cox-2); test: Carrageenan induced air pouch prostaglandin biosynthesis model (CAP); format: in vivo, rat; details: for inhibition in vivo at 3 mg/kg: 4 h, read-out: CAP % Inhib. @ 3 mpk; for ED50: Rattus norvegicus
Method: as §2
Carrageenan induced air pouch prostaglandin biosynthesis model (CAP) Air pouches are formed in the backs of male Sprague Dawley rats by injecting 20 mL of sterile air on day 0. Three days later the pouch was reinflated with an additional 10 mL of sterile air. On day 7, 1 mL of saline containing 0.2 % lambda carrageenan (Sigma Chemical Co.) is injected into the pouch to induce the inflammatory reaction that is characterized by the release of prostaglandins. Test compounds are dosed at 0.1 to 10 mg/kg 30 minutes prior to carrageenan. Four hours after the carrageenan injection the pouch is lavaged and levels of prostaglandins are determined by enzyme immuno-assay using commercially available kits. […] Values for Cox-2 inhibition that are parenthetical indicate ED50 values.

[7] = read-out: RHUCX1 % Inh. at Dose
[8] = 10 mpk oral, 3 hours after carrageenan
[9] = read-out: RHUCX2 % Inh. at Dose

T1 sequence (P23219 24-599): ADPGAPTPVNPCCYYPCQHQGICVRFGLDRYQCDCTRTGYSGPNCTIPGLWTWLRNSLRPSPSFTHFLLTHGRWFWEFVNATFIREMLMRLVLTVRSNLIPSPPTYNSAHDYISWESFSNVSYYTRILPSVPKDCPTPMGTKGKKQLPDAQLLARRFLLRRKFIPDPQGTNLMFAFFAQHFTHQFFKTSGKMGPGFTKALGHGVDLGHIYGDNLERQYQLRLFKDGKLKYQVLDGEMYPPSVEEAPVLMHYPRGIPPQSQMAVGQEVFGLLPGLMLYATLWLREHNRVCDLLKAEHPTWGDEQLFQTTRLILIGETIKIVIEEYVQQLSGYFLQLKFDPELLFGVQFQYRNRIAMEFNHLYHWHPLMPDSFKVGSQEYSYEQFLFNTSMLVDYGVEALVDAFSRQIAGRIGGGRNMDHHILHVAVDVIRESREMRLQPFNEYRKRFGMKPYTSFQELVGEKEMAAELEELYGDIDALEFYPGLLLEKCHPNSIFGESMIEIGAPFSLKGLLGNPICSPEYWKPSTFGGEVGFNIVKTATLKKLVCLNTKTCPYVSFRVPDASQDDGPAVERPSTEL
T3 sequence (P23219 24-599): as above

CS(=O)(=O)c1ccc(-c2cnn(-c3ccc(F)c(F)c3)c(=O)c2Oc2ccc(F)cc2)cc1 [Example 109, 2-(3,4-Difluorophenyl)-4-(4-fluorophenoxy)-5-[4-(methylsulfonyl)phenyl]-3(2H)-pyridazinone]
inhibition at 100 µM [1, 7]: 6% | IC50 [2]: 147 nM | IC50 [3]: 2690 nM | IC50 [4]: 18 nM | inhibition in vivo at 10 mg/kg [5, 8]: 13% | inhibition in vivo at 3 mg/kg ([6]; 3 mpk, rat): 71% | melting point: 178 to 180 °C

CS(=O)(=O)c1ccc(-c2cnn(-c3cccc(Cl)c3)c(=O)c2Oc2ccc(F)cc2)cc1 [Example 112, 2-(3-Chlorophenyl)-4-(4-fluorophenoxy)-5-[4-(methylsulfonyl)phenyl]-3(2H)-pyridazinone]
inhibition at 100 µM [1, 7]: 5% | IC50 [2]: 136 nM | inhibition in vivo at 10 mg/kg [5, 8]: 21% | inhibition in vivo at 3 mg/kg ([6]; 3 mpk, rat): 42.5% | melting point: 211 to 213 °C

CC(C)CCc1c(-c2ccc(S(N)(=O)=O)c(F)c2)cnn(CC(F)(F)F)c1=O [Example 226]
inhibition at 100 µM [1, 7]: 0% | IC50 [2]: 1090 nM | inhibition in vivo at 10 mg/kg [5, 8]: 21% | inhibition in vivo at 3 mg/kg ([6]; 3 mpk, rat): 40.5%

CC(C)(C)COc1c(-c2ccc(S(C)(=O)=O)cc2)cnn(CC(F)(F)F)c1=O [Example 261]
inhibition at 200 µM ([1]; 200 μM, read-out: RHUCX1 % Inh. at Dose): 0% | IC50 [2]: 161 nM | IC50 [3]: 34000 nM | IC50 [4]: 99 nM | inhibition in vivo at 10 mg/kg [5, 8]: 28% | inhibition in vivo at 3 mg/kg ([6]; 3 mpk, rat): 79% | melting point: 145 to 146 °C

CC(C)CCOc1c(-c2ccc(S(C)(=O)=O)cc2)cnn(-c2cccc(Cl)c2)c1=O [Example 339, 2-(3-Chlorophenyl)-4-(3-methylbutoxy)-5-[4-(methylsulfonyl)phenyl]-3(2H)-pyridazinone]
inhibition at 100 µM [1, 7]: 2% | IC50 [2]: 88 nM | IC50 [3]: 393 nM | IC50 [4]: 26 nM | inhibition in vivo at 10 mg/kg [5, 8]: 43% | inhibition in vivo at 3 mg/kg ([6]; 3 mpk, rat): 90.5% | ED50 [6]: 0.58 mg/kg | melting point: 134 to 135 °C

CC(C)CCOc1c(-c2ccc(S(C)(=O)=O)cc2)cnn(-c2ccc(F)c(F)c2)c1=O [Example 347, 2-(3,4-Difluorophenyl)-4-(3-methyl-1-butoxy)-5-[4-(methylsulfonyl)phenyl]-3(2H)-pyridazinone]
inhibition at 100 µM [1, 7]: 11% | IC50 [2]: 75 nM | inhibition in vivo at 10 mg/kg [5, 8]: 27% | inhibition in vivo at 3 mg/kg ([6]; 3 mpk, rat): 66.5% | melting point: 121 to 123 °C

CC(C)COc1c(-c2ccc(S(C)(=O)=O)cc2)cnn(-c2ccc(F)cc2)c1=O [Example 376, 2-(4-Fluorophenyl)-4-(2-methylpropoxy)-5-[4-(methylsulfonyl)phenyl]-3(2H)-pyridazinone]
inhibition at 100 µM [1, 7]: 12% | IC50 [2]: 27 nM | inhibition in vivo at 10 mg/kg [5, 8]: 17% | inhibition in vivo at 3 mg/kg ([6]; 3 mpk, rat): 77.5% | melting point: 121 to 128 °C

NS(=O)(=O)c1ccc(-c2cnn(-c3ccc(F)c(F)c3)c(=O)c2Oc2ccc(F)cc2)cc1 [Example 388, 2-(3,4-Difluophenyl)-4-(4-fluorophenoxy)-5-[4-(aminosulfonyl)phenyl]-3(2H)-pyridazinone]
RHUCX1 % Inh. at Dose (μM) ([1]; 1 μM): 36 @ 1% | RHUCX1 % Inh. at Dose (μM) ([1]; 10 μM): 74 @ 10% | IC50 [2]: 49 nM | HWPX % Inhib. at Dose (μM) ([3]; 0.3 μM): 0 @ .3% | IC50 [4]: 32 nM | CPE % Inhib. @ 10 mpk [5, 8]: 28% | CAP % Inhib. @ 3 mpk ([6]; 3 mpk, rat): 80%

CC(C)CCc1c(-c2ccc(S(N)(=O)=O)cc2)cnn(-c2cccc(Cl)c2)c1=O [Example 392, 2-(3-Chlorophenyl)-4-(3-methylbutyl)-5-[4-(aminosulfonyl)phenyl]-3(2H)-pyridazinone]
inhibition at 10 µM ([1]; 10 μM, read-out: RHUCX1 % Inh. at Dose): 35% | inhibition at 100 µM [1, 7]: 56% | inhibition at 0.01 µM [2, 9]: 65% | inhibition at 0.1 µM [2, 9]: 82% | IC50 [3]: 1950 nM | IC50 [4]: 20 nM | inhibition in vivo at 3 mg/kg ([6]; 3 mpk, rat): 60% | melting point: 167 to 170 °C

CC(C)CCc1c(-c2ccc(S(N)(=O)=O)cc2)cnn(-c2ccc(F)cc2)c1=O [Example 396, 2-(4-Fluorophenyl)-4-(3-methylbutyl)-5-[4-(aminosulfonyl)phenyl]-3(2H)-pyridazinone]
inhibition at 100 µM [1, 7]: 22% | IC50 [2]: 59 nM | IC50 [3]: 12700 nM | IC50 [4]: 20 nM | inhibition in vivo at 10 mg/kg [5, 8]: 23% | inhibition in vivo at 3 mg/kg ([6]; 3 mpk, rat): 85% | melting point: 180 to 183 °C

CC(C)COc1c(-c2ccc(S(N)(=O)=O)cc2)cnn(-c2ccc(F)cc2)c1=O [Example 397, 2-(4-Fluorophenyl)-4-(2-methylpropoxy)-5-[4-(aminosulfonyl)phenyl]-3(2H)-pyridazinone]
inhibition at 100 µM [1, 7]: 25% | inhibition at 0.01 µM [2, 9]: 39% | inhibition at 0.1 µM [2, 9]: 58% | inhibition at 1 µM ([2]; 1 μM, read-out: RHUCX2 % Inh. at Dose): 93% | IC50 [3]: 13800 nM | IC50 [4]: 40 nM | inhibition in vivo at 3 mg/kg ([6]; 3 mpk, rat): 70% | melting point: 132 to 136 °C

CC(=O)CCOc1c(-c2ccc(S(C)(=O)=O)cc2)cnn(-c2ccc(F)c(F)c2)c1=O [Example 467, 2-(3,4-Difluorophenyl)-4-(3-oxo-1-butoxy)-5-[4-(methylsulfonyl)phenyl]-3(2H)-pyridazinone]
inhibition at 100 µM [1, 7]: 4% | IC50 [2]: 1960 nM | IC50 [4]: 135 nM | CPE ED30 ([5]; oral): ED30 = 1.7 | ED50 [6]: 0.4 mg/kg | melting point: 134 to 135 °C

CC(C)(O)CCOc1c(-c2ccc(S(C)(=O)=O)cc2)cnn(-c2cccc(Cl)c2)c1=O [Example 475, 2-(3-Chlorophenyl)-4-(3-hydroxy-3-methyl-1-butoxy)-5-[4-(methylsulfonyl)phenyl]-3(2H)-pyridazinone]
inhibition at 100 µM [1, 7]: 0% | IC50 [2]: 710 nM | inhibition at 100 µM ([3]; 100 μM, read-out: HWPX % Inhib. at Dose): 50% | IC50 [4]: 440 nM | inhibition in vivo at 10 mg/kg [5, 8]: 33% | ED50 [6]: 1.4 mg/kg

CC(=O)NS(=O)(=O)c1ccc(-c2cnn(CC(F)(F)F)c(=O)c2OCC(C)(C)CO)cc1 [Example 528, N-[[4-[2-(2,2,2-Trifluoroethyl)-4-(3-hydroxy-2,2-dimethyl-1-propoxy)-2H-pyridazin-3-on-5-yl]phenyl]sulfonyl]acetamide]
IC50 ([1]; read-out: RHUCX1 IC50 (parenthetical value)): 3400 nM | IC50 [2]: 720 nM | IC50 [3]: 3500 nM | IC50 [4]: 54 nM | inhibition in vivo at 10 mg/kg [5, 8]: 40% | ED50 [6]: 1.4 mg/kg
